Experimental data published in publication PMC11052077, “Discovery of Dolutegravir Derivative against Liver Cancer via Inducing Autophagy and DNA Damage” (Molecules, 2024).

Legend:
[1] = system: Huh7 cells; experiment: CCK8 cell viability assay, Huh7; format: cell-based, human; details: for Cell Viability (100%), 20 μM, 48 h, Huh7: Huh7, CCK8, control taken as 100%; for IC50: 48 h, Huh7, CCK8, read-out: half maximal inhibitory concentration (IC50), Huh7
Protocol: (§1) This study aimed to assess the anti-proliferative activity of dolutegravir-1,2,3-triazole derivatives on hepatocellular carcinoma cell lines, Huh7 and hepG2. A comprehensive CCK8 assay was employed to evaluate the impact of these compounds on cell viability, with cells treated at a concentration of 20 μM for 48 h. HRM cells, a normal cell line, were included as a control for comparative analysis.
(§2) Human hepatocellular carcinoma cell lines Huh7 and hepG2 were obtained from ATCC (Manassas, VA, USA). Cells were cultured in DMEM or RPMI 1640 medium containing 10% FBS and 1% penicillin/streptomycin at 37 °C with a 5% CO2-humidified atmosphere.
(§3) CCK8 assay was used to measure cell viability. Cells with a density of 1 × 10^4 cells/well were seeded on 96-well plates. After adhesion, cells were treated with different diluted compounds or vehicle control DMSO and continued to be cultured for 48 h or 72 h, respectively. Then, CCK8 reagent was added for one hour incubation at 37 °C with 5% CO2. Absorbance was measured using a Microplate spectrophotometer (Thermo, Waltham, MA, USA) at 450 nm. The ratio of cell viability of control was taken as 100%. […] Then, IC50 of compounds were investigated using the prism statistical software 7.0.

[2] = system: hepG2 cells; experiment: CCK8 cell viability assay, hepG2; format: cell-based, human; details: for Cell Viability (100%), 20 μM, 48 h, hepG2: hepG2, CCK8, control taken as 100%; for IC50: 48 h, hepG2, CCK8, read-out: half maximal inhibitory concentration (IC50), hepG2
Protocol: as §1, §2, §3

[3] = system: HRM cells (human renal mesangial cells); experiment: in vitro; format: cell-based; details: 20 µM
Protocol: This study aimed to assess the anti-proliferative activity of dolutegravir-1,2,3-triazole derivatives on hepatocellular carcinoma cell lines, Huh7 and hepG2. A comprehensive CCK8 assay was employed to evaluate the impact of these compounds on cell viability, with cells treated at a concentration of 20 μM for 48 h. HRM cells, a normal cell line, were included as a control for comparative analysis. […]
as §3

Row | SMILES | Cell Viability (100%), 20 μM, 48 h, Huh7 [1] [%] | IC50 [1] [µM] | Cell Viability (100%), 20 μM, 48 h, hepG2 [2] [%] | IC50 [2] [µM] | Cell Viability (100%), 20 μM, 48 h, HRM [3] [%]
1 | COc1c2n(cc(C(=O)Nc3cccc(-c4cn(-c5ccccc5OC(F)(F)F)nn4)c3)c1=O)CC1OCCC(C)N1C2=O (centres unmarked) [Compound 5i] | 7.95 | 12.3 ± 0.26 | 24.84 | 9.43 ± 0.7 | 70.03
2 | COc1c2n(cc(C(=O)Nc3cccc(-c4cn(Cc5cc(Br)cc(Br)c5)nn4)c3)c1=O)CC1OCCC(C)N1C2=O (centres unmarked) [Compound 6a] | 75.97 | – | 66.48 | – | 84.46
3 | COc1c2n(cc(C(=O)Nc3cccc(-c4cn(-c5ccccc5I)nn4)c3)c1=O)CC1OCCC(C)N1C2=O (centres unmarked) [Compound 5w] | 49.87 | 15.9 ± 0.31 | 54.35 | 25.7 ± 0.42 | 92.77
4 | COc1c2n(cc(C(=O)Nc3cccc(-c4cn(-c5ccccc5F)nn4)c3)c1=O)CC1OCCC(C)N1C2=O (centres unmarked) [Compound 5a] | 83.32 | – | 90.43 | – | 71.18
5 | COc1ccc(-n2cc(-c3cccc(NC(=O)c4cn5c(c(OC)c4=O)C(=O)N4C(C)CCOC4C5)c3)nn2)cc1OC (centres unmarked) [Compound 5j] | 65.52 | – | 77.13 | – | 108.54
6 | COc1cccc(Cn2cc(-c3cccc(NC(=O)c4cn5c(c(OC)c4=O)C(=O)N4C(C)CCOC4C5)c3)nn2)c1 (centres unmarked) [Compound 6d] | 72.78 | – | 65.65 | – | 98.59
7 | COc1c2n(cc(C(=O)Nc3cccc(-c4cn(-c5ccc(F)cc5)nn4)c3)c1=O)CC1OCCC(C)N1C2=O (centres unmarked) [Compound 5g] | 90.24 | – | 105.19 | – | 103.67
8 | COc1cccc(-n2cc(-c3cccc(NC(=O)c4cn5c(c(OC)c4=O)C(=O)N4C(C)CCOC4C5)c3)nn2)c1 (centres unmarked) [Compound 5l] | 46.30 | 7.62 ± 1.03 | 33.91 | 10.6 ± 0.67 | 94.97
9 | COc1c2n(cc(C(=O)Nc3cccc(-c4cn(-c5ccc(C(C)(C)C)cc5)nn4)c3)c1=O)CC1OCCC(C)N1C2=O (centres unmarked) [Compound 5n] | 54.04 | – | 77.30 | – | 108.06
10 | COc1c2n(cc(C(=O)Nc3cccc(-c4cn(-c5ccccc5Br)nn4)c3)c1=O)CC1OCCC(C)N1C2=O (centres unmarked) [Compound 5u] | 33.46 | 12.6 ± 0.58 | 47.16 | 34.7 ± 5.13 | 100.10
11 | COc1c2n(cc(C(=O)Nc3cccc(-c4cn(-c5ccccc5Cl)nn4)c3)c1=O)CC1OCCC(C)N1C2=O (centres unmarked) [Compound 5v] | 37.66 | 42.2 ± 1.1 | 38.75 | 24.8 ± 2.21 | 95.10
12 | CCc1ccccc1-n1cc(-c2cccc(NC(=O)c3cn4c(c(OC)c3=O)C(=O)N3C(C)CCOC3C4)c2)nn1 (centres unmarked) [Compound 5k] | 48.55 | 16.9 ± 0.48 | 50.62 | 15.2 ± 1.15 | 0.81
13 | COc1c2n(cc(C(=O)Nc3cccc(-c4cn(-c5c(C)cc(C)cc5C)nn4)c3)c1=O)CC1OCCC(C)N1C2=O (centres unmarked) [Compound 5z] | 66.22 | – | 63.22 | – | 100.35
14 | COc1c2n(cc(C(=O)Nc3cccc(-c4cn(Cc5ccccc5Br)nn4)c3)c1=O)CC1OCCC(C)N1C2=O (centres unmarked) [Compound 6c] | 39.13 | 13.9 ± 0.81 | 46.80 | 27.8 ± 2.94 | 105.55
15 | COc1c2n(cc(C(=O)Nc3cccc(-c4cn(-c5cc(C(F)(F)F)ccc5C(F)(F)F)nn4)c3)c1=O)CC1OCCC(C)N1C2=O (centres unmarked) [Compound 5q] | 12.00 | 7.85 ± 0.9 | 38.49 | 18.5 ± 2.85 | 91.40
16 | COc1c2n(cc(C(=O)Nc3cccc(-c4cn(-c5cc(C(F)(F)F)cc(C(F)(F)F)c5)nn4)c3)c1=O)CC1OCCC(C)N1C2=O (centres unmarked) [Compound 5r] | 80.13 | – | 78.52 | – | 101.27
17 | COc1c2n(cc(C(=O)Nc3cccc(-c4cn(-c5ccc(C(F)(F)F)cc5)nn4)c3)c1=O)CC1OCCC(C)N1C2=O (centres unmarked) [Compound 5d] | 77.89 | – | 79.96 | – | 108.43
18 | COc1c2n(cc(C(=O)Nc3cccc(-c4cn(Cc5ccccc5C)nn4)c3)c1=O)CC1OCCC(C)N1C2=O (centres unmarked) [Compound 6g] | 39.11 | – | 52.95 | – | 101.52
19 | CCc1ccc(-n2cc(-c3cccc(NC(=O)c4cn5c(c(OC)c4=O)C(=O)N4C(C)CCOC4C5)c3)nn2)cc1 (centres unmarked) [Compound 5m] | 36.41 | – | 77.30 | – | 101.13
20 | COc1c2n(cc(C(=O)Nc3cccc(-c4cn(-c5cccc(C)c5)nn4)c3)c1=O)CC1OCCC(C)N1C2=O (centres unmarked) [Compound 5f] | 15.92 | 8.63 ± 0.33 | 12.96 | 12.1 ± 0.77 | 66.43
21 | COc1cc([N+](=O)[O-])ccc1-n1cc(-c2cccc(NC(=O)c3cn4c(c(OC)c3=O)C(=O)N3C(C)CCOC3C4)c2)nn1 (centres unmarked) [Compound 5b] | 110.94 | – | 93.94 | – | 112.94
22 | COc1c2n(cc(C(=O)Nc3cccc(-c4cn(-c5ccccc5)nn4)c3)c1=O)CC1OCCC(C)N1C2=O (centres unmarked) [Compound 5o] | 67.64 | – | 80.21 | – | 100.28
23 | COc1c2n(cc(C(=O)Nc3cccc(-c4cn(-c5ccc(C)cc5)nn4)c3)c1=O)CC1OCCC(C)N1C2=O (centres unmarked) [Compound 5y] | 79.52 | – | 69.40 | – | 103.82
24 | CCOc1ccc(-n2cc(-c3cccc(NC(=O)c4cn5c(c(OC)c4=O)C(=O)N4C(C)CCOC4C5)c3)nn2)cc1 (centres unmarked) [Compound 5h] | 72.06 | – | 90.41 | – | 102.23
25 | COc1c2n(cc(C(=O)Nc3cccc(-c4cn(Cc5ccccc5)nn4)c3)c1=O)CC1OCCC(C)N1C2=O (centres unmarked) [Compound 6b] | 68.00 | – | 57.81 | – | 99.53
26 | COc1c2n(cc(C(=O)Nc3cccc(-c4cn(Cc5cccc(Br)c5)nn4)c3)c1=O)CC1OCCC(C)N1C2=O (centres unmarked) [Compound 6e] | 20.45 | 16.2 ± 0.37 | 55.14 | 19.7 ± 2.19 | 102.27
